Data: PubChem BioAssay AID248 (DTP/NCI, 2004)
Several values for one entry are separate records, joined by “and”; a condition that tells them apart may be missing. Equal entries are not always repeated. Inconclusive results and toxic doses are left out. No stated cut-off is given here; in the data, active means T/C of 150% or more; inactive means T/C below 125%.

Test system: L1210 leukemia ip in BDF1 mice, survival T/C
Assay: NCI In Vivo Anticancer Drug Screen. Data for tumor model L1210 Leukemia (intraperitoneal) in B6D2F1 (BDF1) mice
Conditions: endpoint: mean survival time, higher = longer survival
Summary of the method: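 Transplanted-tumor mice were given test agent; controls received vehicle only. Survival readings from the two groups were divided (treated over control).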

[1] = dose: 100.0 mg/kg/injection, schedule: Q04DX003 (ip), vehicle: saline with Tween-80
[2] = dose: 200.0 mg/kg/injection, schedule: Q04DX003 (ip), vehicle: saline with Tween-80
[3] = dose: 400.0 mg/kg/injection, schedule: Q04DX003 (ip), vehicle: saline with Tween-80
[4] = dose: 100.0 mg/kg/injection, schedule: Q04DX003 (ip), vehicle: Klucel (hydroxypropylcellulose) (HPC)
[5] = dose: 200.0 mg/kg/injection, schedule: Q04DX003 (ip), vehicle: Klucel (hydroxypropylcellulose) (HPC)
[6] = dose: 400.0 mg/kg/injection, schedule: Q04DX003 (ip), vehicle: Klucel (hydroxypropylcellulose) (HPC)
[7] = dose: 100.0 mg/kg/injection, schedule: Q01DX009 (ip), vehicle: saline
[8] = dose: 200.0 mg/kg/injection, schedule: Q01DX009 (ip), vehicle: saline
[9] = dose: 400.0 mg/kg/injection, schedule: Q01DX009 (ip), vehicle: saline
[10] = dose: 12.5 mg/kg/injection, schedule: Q01DX009 (ip), vehicle: saline
[11] = dose: 25.0 mg/kg/injection, schedule: Q01DX009 (ip), vehicle: saline
[12] = dose: 50.0 mg/kg/injection, schedule: Q01DX009 (ip), vehicle: saline
[13] = dose: 100.0 mg/kg/injection, schedule: Q01DX001 (ip), vehicle: saline
[14] = dose: 200.0 mg/kg/injection, schedule: Q01DX001 (ip), vehicle: saline
[15] = dose: 400.0 mg/kg/injection, schedule: Q01DX001 (ip), vehicle: saline
[16] = dose: 100.0 mg/kg/injection, schedule: Q01DX009 (ip), vehicle: saline with Tween-80
[17] = dose: 200.0 mg/kg/injection, schedule: Q01DX009 (ip), vehicle: saline with Tween-80
[18] = dose: 400.0 mg/kg/injection, schedule: Q01DX009 (ip), vehicle: saline with Tween-80
[19] = dose: 50.0 mg/kg/injection, schedule: Q01DX009 (ip), vehicle: saline with Tween-80
[20] = dose: 100.0 mg/kg/injection, schedule: Q04DX003 (ip), vehicle: saline
[21] = dose: 200.0 mg/kg/injection, schedule: Q04DX003 (ip), vehicle: saline

Measured: T/C

CC(C)(S)CNCCSC(=O)c1ccccc1
inactive: [1] 102 % of control | [2] 100 % of control | [3] 92 % of control

NC(=NCc1ccccc1)c1ccc(NC(=O)c2ccc(C(=O)Nc3ccc(C(N)=NCc4ccccc4)cc3)cc2)cc1
inactive: dose: 7.0 mg/kg/injection, schedule: Q01DX Z (ip), vehicle: water 113 % of control

COC(=O)C(C)(C)Br
inactive: dose: 100.0 mg/kg/injection, schedule: Q01DX009 (ip), vehicle: saline sonified 94 % of control | dose: 200.0 mg/kg/injection, schedule: Q01DX009 (ip), vehicle: saline sonified 100 % of control | dose: 400.0 mg/kg/injection, schedule: Q01DX009 (ip), vehicle: saline sonified 100 % of control

CCOc1ccc(CCC(=O)O)cc1
inactive: [4] 100 % of control | [5] 105 % of control | [6] 94 % of control

CC(=O)C(CCS(C)(=O)=O)(CCS(C)(=O)=O)c1ccccc1
inactive: [4] 112 % of control | [5] 108 % of control | [6] 100 % of control

O=C(Nc1cccc(F)c1)N(CCO)C1CCCCC1
inactive: [7] 105 % of control | [8] 113 % of control | [9] 100 % of control

CCCCCCCC(=O)Nc1c(C)cc(C)cc1C
inactive: [1] 95 % of control | [2] 92 % of control | [3] 93 % of control

NC(=O)OCCCc1ccccc1
inactive: [10] 112 % of control | [11] 105 % of control | dose: 25.0 mg/kg/injection, schedule: Q04DX003 (ip), vehicle: Klucel (hydroxypropylcellulose) (HPC) 101 % of control | [12] 103 % of control | dose: 50.0 mg/kg/injection, schedule: Q04DX003 (ip), vehicle: Klucel (hydroxypropylcellulose) (HPC) 104 % of control | [7] 112 % of control | [8] 105 % of control | [5] 98 % of control

CCOC(=O)N1CCN2C(=O)N(CC)CCC2C1 (stereo unspecified)
inactive: [13] 93 % of control | [14] 93 % of control | [15] 94 % of control

CCCC(NC(=O)C(C)Br)C(=O)O (stereo unspecified)
inactive: [16] 88 % of control | [17] 98 % of control | [18] 95 % of control

Cc1ccc(C(C)(C)CP(c2ccccc2)c2ccccc2)cc1
inactive: dose: 25.0 mg/kg/injection, schedule: Q04DX002 (ip), vehicle: saline with Tween-80 95 % of control | dose: 50.0 mg/kg/injection, schedule: Q04DX002 (ip), vehicle: saline with Tween-80 92 % of control | dose: 200.0 mg/kg/injection, schedule: Q04DX002 (ip), vehicle: saline with Tween-80 89 % of control

CCCCCCCOc1ccc(C2=C(c3ccccc3)C(=O)C(c3ccccc3)=C2c2ccccc2)cc1
inactive: dose: 100.0 mg/kg/injection, schedule: Q01DX001 (ip), vehicle: carboxymethylcellulose (CMC) 100 % of control | dose: 200.0 mg/kg/injection, schedule: Q01DX001 (ip), vehicle: carboxymethylcellulose (CMC) 100 % of control | dose: 400.0 mg/kg/injection, schedule: Q01DX001 (ip), vehicle: carboxymethylcellulose (CMC) 94 % of control

CCOC(=O)c1c(NC(=O)C(F)(F)F)[nH]c(SSc2[nH]c(NC(=O)C(F)(F)F)c(C(=O)OCC)c2C(=O)OCC)c1C(=O)OCC
inactive: dose: 25.0 mg/kg/injection, schedule: Q01DX009 (ip), vehicle: saline with Tween-80 97 % of control | [19] 102 % of control | [16] 97 % of control | [1] 105 % of control | [2] 86 % of control

NC1Cc2ccccc2C1
inactive: [10] 98 % of control | [11] 110 % of control and 93 % of control | dose: 25.0 mg/kg/injection, schedule: Q04DX003 (ip), vehicle: saline 104 % of control | [12] 92 % of control and 95 % of control | dose: 50.0 mg/kg/injection, schedule: Q04DX003 (ip), vehicle: saline 109 % of control | [7] 106 % of control and 92 % of control | [20] 96 % of control | [21] 92 % of control

Nc1ccc(Cl)c(C(=O)O)c1
inactive: dose: 100.0 mg/kg/injection, schedule: Q01DX009 (ip), vehicle: Klucel (hydroxypropylcellulose) (HPC) 111 % of control | dose: 200.0 mg/kg/injection, schedule: Q01DX009 (ip), vehicle: Klucel (hydroxypropylcellulose) (HPC) 121 % of control | dose: 400.0 mg/kg/injection, schedule: Q01DX009 (ip), vehicle: Klucel (hydroxypropylcellulose) (HPC) 105 % of control

Nc1nc(=S)[nH][nH]1
inactive: [19] 105 % of control | dose: 100.0 mg/kg/injection, schedule: Q01DX001 (ip), vehicle: saline with Tween-80 104 % of control | [16] 117 % of control | [1] 104 % of control | dose: 200.0 mg/kg/injection, schedule: Q01DX001 (ip), vehicle: saline with Tween-80 105 % of control | [17] 101 % of control | [2] 98 % of control

NC(=O)c1ccc(NCc2cnc3nc(N)nc(N)c3n2)cc1
inactive: dose: 20.0 mg/kg/injection, schedule: Q01DX009 (ip), vehicle: Klucel (hydroxypropylcellulose) (HPC) 106 % of control | dose: 40.0 mg/kg/injection, schedule: Q01DX009 (ip), vehicle: Klucel (hydroxypropylcellulose) (HPC) 101 % of control | dose: 80.0 mg/kg/injection, schedule: Q01DX009 (ip), vehicle: Klucel (hydroxypropylcellulose) (HPC) 103 % of control

C[N+]1=COCC1(C)C
inactive: [7] 104 % of control | [20] 99 % of control | [8] 101 % of control | [21] 94 % of control | [9] 115 % of control | dose: 400.0 mg/kg/injection, schedule: Q04DX003 (ip), vehicle: saline 97 % of control

CS(=O)(=O)OCCC(=O)NCCCCNC(=O)CCOS(C)(=O)=O
inactive: [13] 104 % of control | [20] 115 % of control | [14] 117 % of control | dose: 264.0 mg/kg/injection, schedule: Q01DX001 (ip), vehicle: saline 103 % of control and 121 % of control | dose: 264.0 mg/kg/injection, schedule: Q01DX009 (ip), vehicle: saline 113 % of control | [15] 97 % of control | [18] 122 % of control | [9] 112 % of control

CCOC(=O)CC(=O)C(F)(F)F.CCOC(=O)CC(=O)C(F)(F)F.[Ni]
inactive: dose: 5.0 mg/kg/injection, schedule: Q01DX001 (ip), vehicle: saline 96 % of control | dose: 10.0 mg/kg/injection, schedule: Q01DX001 (ip), vehicle: saline 98 % of control | dose: 20.0 mg/kg/injection, schedule: Q01DX001 (ip), vehicle: saline 102 % of control | dose: 40.0 mg/kg/injection, schedule: Q01DX001 (ip), vehicle: saline 106 % of control

CC1(C)C(N2CCCCC2)CS1(=O)=O (stereo unspecified)
inactive: dose: 12.5 mg/kg/injection, schedule: Q01DX009 (ip), vehicle: saline sonified 103 % of control | dose: 25.0 mg/kg/injection, schedule: Q01DX009 (ip), vehicle: saline sonified 98 % of control | dose: 50.0 mg/kg/injection, schedule: Q01DX009 (ip), vehicle: saline sonified 94 % of control

ClCCN1CCOC1=Nc1ccccc1
inactive: dose: 100.0 mg/kg/injection, schedule: Q01DX001 (ip), vehicle: other 105 % of control | dose: 200.0 mg/kg/injection, schedule: Q01DX001 (ip), vehicle: other 105 % of control | dose: 400.0 mg/kg/injection, schedule: Q01DX001 (ip), vehicle: other 100 % of control

C/C=C/SC(=Nc1ccccc1)Nc1ccccc1
inactive: dose: 100.0 mg/kg/injection, schedule: Q01DX001 (ip), vehicle: Klucel (hydroxypropylcellulose) (HPC) 96 % of control | dose: 200.0 mg/kg/injection, schedule: Q01DX001 (ip), vehicle: Klucel (hydroxypropylcellulose) (HPC) 94 % of control | dose: 400.0 mg/kg/injection, schedule: Q01DX001 (ip), vehicle: Klucel (hydroxypropylcellulose) (HPC) 98 % of control

Nc1ncnc2c1ncn2C1OC(COP(=O)(O)OP(=O)(O)OP(=O)(O)O)C(O)C1O (stereo unspecified)
inactive: dose: 80.0 mg/kg/injection, schedule: Q01DX Z (ip), vehicle: saline 87 % of control | dose: 120.0 mg/kg/injection, schedule: Q01DX Z (ip), vehicle: saline 87 % of control | dose: 180.0 mg/kg/injection, schedule: Q01DX Z (ip), vehicle: saline 95 % of control | dose: 270.0 mg/kg/injection, schedule: Q01DX Z (ip), vehicle: saline 98 % of control
